Measured values: patent publication US5453441A, “Substituted arginines and substituted homoarginines and use thereof” (Cornell Research Foundation, Inc., priority 1994, dated 1995)

How the values were obtained:
[1] = test system: inducible form of nitric oxide synthase; experiment: Inhibition of nitric oxide synthesis by nitric oxide synthase (inducible form) from cytokine-treated rat aortic smooth muscle cells; assay type: biochemical, adult male Fischer 344 rats
Procedure: Reaction mixtures were made up containing 50 μL of a working solution, 10 μL myoglobin solution (3 mg/ml), 10 μL inhibitor, 20 μL nitric oxide synthase and 10 μL water.
The working mixture was made up to contain 160 mM tris buffer, 200 μM L-arginine, 1 mM NADPH, 20 μM flavin adenine dinucleotide, 20 μM tetrahydrobiopterin in distilled water (pH adjusted to 7.6 by adding 10N NaOH).
The nitric oxide synthase was obtained as follows: Aortic smooth muscle cells were cultured by explanting segments of the medial layer of aortae from adult male Fischer 344 rats. Aortae were removed aseptically and freed of adventitial and endothelial cells by scraping both the lumenal and abluminal surfaces. Medial fragments (1-2 mm) were allowed to attach to dry Primaria 25 cm^2 tissue culture flasks (Falcon; Oxnard, Calif.) which were kept moist with growth medium until cells emerged. Cultures were fed twice weekly with medium 199 containing 10% fetal bovine serum, 25 mM HEPES, 2 mM L-glutamine, 40 μg/ml endothelial cell growth supplement (Biomedical Technologies; Stoughton, Mass.) and 10 μg/ml gentamycin (GIBCO; Grand Island, N.Y.). When primary cultures became confluent, they were passaged by trypsinization. Cells in passage 10-15 were seeded at 20,000/well. […]

pressor response = assay type: in vivo, rat; conditions: phenylephrine 0.1 to 10 μg/kg, angiotensin II 0.01 to 1 μg/kg
Procedure: To establish that nitric oxide overproduction can result in a diminished sensitivity to pressor agents, studies in a rat model of septic hypotension, i.e., the endotoxic-, pithed-rat, are performed.
Animals are either untreated (control) or treated with endotoxin (lipopolysaccharide-treated; 15 mg/kg, i.p.) 6 hours prior to their being pithed and instrumented for blood pressure recording. Prior to pithing, mean systematic arterial pressure in control rats is about 120 mm Hg. Pressure falls about 50% after pithing of control animals and is reduced to about 25% of normal in pithed endotoxin-treated animals.
Responsiveness is restored to more than 50% of the responsiveness seen in pithed control rats.

Molecule | effectiveness relative to the commercial compound (N^ω -methyl-DL-arginine), based on the concentration necessary to inhibit 50% [1] | pressor effect in pithed control rats (pressor response) | pressor effect in pithed endotoxic rats (pressor response)
CC(N)(CCCNC(=N)NN)C(=O)O (racemic) [α-methyl-N^ω -amino-DL-arginine, α-Methyl-N^ω -Amino-DL-Arginine] | about twice as effective as the commercial compound |  | 
CNC[C@H](O)c1cccc(O)c1 [phenylephrine] |  | strong pressor effect | negligible effect
angiotensin II: listed among suitable α1 -adrenergic agonists; pressor agent (DRVYIHPF; Angiotensin-2; UniProt P01019 25-32, looked up) |  | strong pressor effect | negligible effect
